# Measurements reported in patent publication US11377441B2, “Covalent inhibitors of KRAS” (Araxes Pharma LLC, priority 2017, dated 2022).
# Biological target: T1, KRAS G12C 1-169, his-tagged protein, GDP-loaded (Homo sapiens, UniProt P01116, G12C)
# T1 construct: KRAS G12C 1-169, his-tagged protein, GDP-loaded
# Assay: Biochemical assay: covalent modification of KRAS G12C measured by mass spectrometry (RapidFire/TOF or Q-Exactive)
# Format: binding
# Settings: covalent binding to (modification of) KRAS G12C after a ten minute incubation period
# How it was run: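 GDP-loaded KRAS G12C 1-169 (his-tagged) at 2 μM or 0.5 μM in 20 mM Hepes, 150 mM NaCl, 1 mM MgCl2, incubated with compound at 100, 30 or 10 μM at room temperature for 10 min, 30 min, 2 h or 24 h, then quenched with formic acid. Intact-protein LC-MS, deconvolved; percent modification from modified versus unmodified protein.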
row,Structure (SMILES),Binding %
1,"C=CC(=O)N1C[C@H](C)N(c2nc(N3CC(N(C)C)C3)nc3c(F)c(-c4c(C)ccc5cnn(C)c45)c(Cl)cc23)C[C@H]1C [Compound 120, 1-((2R,5S)-4-(6-chloro-7-(1,6-dimethyl-1H-indazol-7-yl)-2-(3-(dimethylamino)azetidin-1-yl)-8-fluoroquinazolin-4-yl)-2,5-dimethylpiperazin-1-yl)prop-2-en-1-one]",++ (++ indicates binding activity from 50 to 80%)
2,"C=CC(=O)N1C[C@H](C)N(c2nc(OCCN3CC(F)(F)C3)nc3c(F)c(-c4c(C)ccc5cnn(CC)c45)c(Cl)cc23)C[C@H]1C [Compound 123, 1-((2R,5S)-4-(6-chloro-2-(2-(3,3-difluoroazetidin-1-yl)ethoxy)-7-(1-ethyl-6-methyl-1H-indazol-7-yl)-8-fluoroquinazolin-4-yl)-2,5-dimethylpiperazin-1-yl)prop-2-en-1-one]",+++ (+++ indicates binding activity greater than 80%)
3,"C=CC(=O)N1C[C@H](C)N(c2nc(N3CC(N(C)C)C3)nc3c(F)c(-c4c(C)ccc5sncc45)c(Cl)cc23)C[C@H]1C [Compound 124, 1-((2R,5S)-4-(6-chloro-2-(3-(dimethylamino)azetidin-1-yl)-8-fluoro-7-(5-methylbenzo[d]isothia-zol-4-yl)quinazolin-4-yl)-2,5-dimethylpiperazin-1-yl)prop-2-en-1-one]",++ (++ indicates binding activity from 50 to 80%)
4,"C=CC(=O)N1C[C@H](C)N(c2nc(N3CC(N(C)C)C3)nc3c(F)c(-c4c(C)ccc5ocnc45)c(Cl)cc23)C[C@H]1C [Compound 125, 1-((2R,5S)-4-(6-chloro-2-(3-(dimethylamino)azetidin-1-yl)-8-fluoro-7-(5-methylbenzo[d]oxazol-4-yl)quinazolin-4-yl)-2,5-dimethylpiperazin-1-yl)prop-2-en-1-one]",++ (++ indicates binding activity from 50 to 80%)
5,"C=CC(=O)N1C[C@H](C)N(c2nc(N3CC(N)C3)nc3c(F)c(-c4c(C)ccc5[nH]nc(C6CC6)c45)c(Cl)cc23)C[C@H]1C [Compound 126, 1-((2R,5S)-4-(2-(3-aminoazetidin-1-yl)-6-chloro-7-(3-cyclopropyl-5-methyl-1H-indazol-4-yl)-8-fluoroquinazolin-4-yl)-2,5-dimethylpiperazin-1-yl)prop-2-en-1-one]",+++ (+++ indicates binding activity greater than 80%)
6,"C=CC(=O)N1C[C@H](C)N(c2nc(N3CC(N(C)C)C3)nc3c(F)c(-c4c(C)ccc5cnn(C(C)C)c45)c(Cl)cc23)C[C@H]1C [Compound 127, 1-((2R,5S)-4-(6-chloro-2-(3-(dimethylamino)azetidin-1-yl)-8-fluoro-7-(1-isopropyl-6-methyl-1H-indazol-7-yl)quinazolin-4-yl)-2,5-dimethylpiperazin-1-yl)prop-2-en-1-one]",++ (++ indicates binding activity from 50 to 80%)
7,"C=CC(=O)N1C[C@H](C)N(c2nc(N3CC(N(C)C)C3)nc3c(F)c(-c4c(C)ccc5cnn(C6CC6)c45)c(Cl)cc23)C[C@H]1C [Compound 128, 1-((2R,5S)-4-(6-chloro-7-(1-cyclopropyl-6-methyl-1H-indazol-7-yl)-2-(3-(dimethylamino)azetidin-1-yl)-8-fluoroquinazolin-4-yl)-2,5-dimethylpiperazin-1-yl)prop-2-en-1-one]",+++ (+++ indicates binding activity greater than 80%)
8,"C=CC(=O)N1C[C@H](C)N(c2nc(N3CC(NC)C3)nc3c(F)c(-c4c(C)ccc5[nH]nc(C6CC6)c45)c(Cl)cc23)C[C@H]1C [Compound 129, 1-((2R,5S)-4-(6-chloro-7-(3-cyclopropyl-5-methyl-1H-indazol-4-yl)-8-fluoro-2-(3-(methylamino)azetidin-1-yl)quinazolin-4-yl)-2,5-dimethylpiperazin-1-yl)prop-2-en-1-one]",+++ (+++ indicates binding activity greater than 80%)
9,"C=CC(=O)N1C[C@H](C)N(c2nc(N3CC(N(C)C)C3)nc3c(F)c(-c4cccc5occc45)c(Cl)cc23)C[C@H]1C [Compound 130, 1-((2R,5S)-4-(7-(benzofuran-4-yl)-6-chloro-2-(3-(dimethylamino)azetidin-1-yl)-8-fluoroquinazolin-4-yl)-2,5-dimethylpiperazin-1-yl)prop-2-en-1-one]",++ (++ indicates binding activity from 50 to 80%)
10,"C=CC(=O)N1C[C@H](C)N(c2nc(N3CC(N(C)C)C3)nc3c(F)c(-c4c(C)ccc5ncn(C)c45)c(Cl)cc23)C[C@H]1C [Compound 132, 1-((2R,5S)-4-(6-chloro-7-(1,6-dimethyl-1H-benzo[d]imidazol-7-yl)-2-(3-(dimethylamino)azetidin-1-yl)-8-fluoroquinazolin-4-yl)-2,5-dimethylpiperazin-1-yl)prop-2-en-1-one]",+ (+ indicates binding activity greater than 0% and up to 50%)
11,"C=CC(=O)N1C[C@H](C)N(c2nc(N3CC(N(C)C)C3)nc3c(F)c(-c4cccc5ccn(C)c45)c(Cl)cc23)C[C@H]1C [Compound 138, 1-((2R,5S)-4-(6-chloro-2-(3-(dimethylamino)azetidin-1-yl)-8-fluoro-7-(1-methyl-1H-indol-7-yl)quinazolin-4-yl)-2,5-dimethylpiperazin-1-yl)prop-2-en-1-one]",+++ (+++ indicates binding activity greater than 80%)
12,"C=CC(=O)N1C[C@H](C)N(c2nc(N3CC(NC)C3)nc3c(F)c(-c4c(C)ccc5[nH]nc(C)c45)c(Cl)cc23)C[C@H]1C [Compound 140, 1-((2R,5S)-4-(6-chloro-7-(3,5-dimethyl-1H-indazol-4-yl)-8-fluoro-2-(3-(methylamino)azetidin-1-yl)quinazolin-4-yl)-2,5-dimethylpiperazin-1-yl)prop-2-en-1-one]",+++ (+++ indicates binding activity greater than 80%)
13,"C=CC(=O)N1C[C@H](C)N(c2nc(N3CC(N(C)C)C3)nc3c(F)c(-c4c(F)ccc5cnn(C)c45)c(Cl)cc23)C[C@H]1C [Compound 145, 1-((2R,5S)-4-(6-chloro-2-(3-(dimethylamino)azetidin-1-yl)-8-fluoro-7-(6-fluoro-1-methyl-1H-indazol-7-yl)quinazolin-4-yl)-2,5-dimethylpiperazin-1-yl)prop-2-en-1-one]",+++ (+++ indicates binding activity greater than 80%)
14,"C=CC(=O)N1C[C@H](C)N(c2nc(N3CC(NC)C3)nc3c(F)c(-c4c(C)ccc5cnn(C6CC6)c45)c(Cl)cc23)C[C@H]1C [Compound 148, 1-((2R,5S)-4-(6-chloro-7-(1-cyclopropyl-6-methyl-1H-indazol-7-yl)-8-fluoro-2-(3-(methylamino)azetidin-1-yl)quinazolin-4-yl)-2,5-dimethylpiperazin-1-yl)prop-2-en-1-one]",+++ (+++ indicates binding activity greater than 80%)
15,"C=CC(=O)N1C[C@H](C)N(c2nc(N3CC(N(C)C)C3)nc3c(F)c(-c4cccc5snc(C)c45)c(Cl)cc23)C[C@H]1C [Compound 157, 1-((2R,5S)-4-(6-chloro-2-(3-(dimethylamino)azetidin-1-yl)-8-fluoro-7-(3-methylbenzo[d]isothia-zol-4-yl)quinazolin-4-yl)-2,5-dimethylpiperazin-1-yl)prop-2-en-1-one]",+++ (+++ indicates binding activity greater than 80%)
16,"C=CC(=O)N1C[C@H](C)N(c2nc(N3CC(N(C)C)C3)nc3c(F)c(-c4cccc5c(Cl)n[nH]c45)c(Cl)cc23)C[C@H]1C [Compound 158, 1-((2R,5S)-4-(6-chloro-7-(3-chloro-1H-indazol-7-yl)-2-(3-(dimethylamino)azetidin-1-yl)-8-fluoroquinazolin-4-yl)-2,5-dimethylpiperazin-1-yl)prop-2-en-1-one]",++ (++ indicates binding activity from 50 to 80%)
17,"C=CC(=O)N1C[C@H](C)N(c2nc(N3CC(N(C)C)C3)nc3c(F)c(-c4c(C(C)C)ccc5[nH]ncc45)c(Cl)cc23)C[C@H]1C [Compound 159, 1-((2R,5S)-4-(6-chloro-2-(3-(dimethylamino)azetidin-1-yl)-8-fluoro-7-(5-isopropyl-1H-indazol-4-yl)quinazolin-4-yl)-2,5-dimethylpiperazin-1-yl)prop-2-en-1-one]",+ (+ indicates binding activity greater than 0% and up to 50%)
18,"C=CC(=O)N1C[C@H](C)N(c2nc(OC[C@H]3CCCN3C)nc3c(F)c(-c4c(C)ccc5[nH]nc(C6CC6)c45)c(Cl)cc23)C[C@H]1C [Compound 160, 1-((2R,5S)-4-(6-chloro-7-(3-cyclopropyl-5-methyl-1H-indazol-4-yl)-8-fluoro-2-(((R)-1-methylpyrrolidin-2-yl)methoxy)quinazolin-4-yl)-2,5-dimethylpiperazin-1-yl)prop-2-en-1-one]",+++ (+++ indicates binding activity greater than 80%)
19,"C=CC(=O)N1C[C@H](C)N(c2nc(OC[C@H]3CCCN3C)nc3c(F)c(-c4c(C)ccc5[nH]nc(C)c45)c(Cl)cc23)C[C@H]1C [Compound 161, 1-((2R,5S)-4-(6-chloro-7-(3,5-dimethyl-1H-indazol-4-yl)-8-fluoro-2-(((R)-1-methylpyrrolidin-2-yl)methoxy)quinazolin-4-yl)-2,5-dimethylpiperazin-1-yl)prop-2-en-1-one]",+++ (+++ indicates binding activity greater than 80%)
20,"C=CC(=O)N1C[C@H](C)N(c2nc(OC[C@@H]3CCCN3C)nc3c(F)c(-c4c(C)ccc5[nH]nc(C)c45)c(Cl)cc23)C[C@H]1C [Compound 162, 1-((2R,5S)-4-(6-chloro-7-(3,5-dimethyl-1H-indazol-4-yl)-8-fluoro-2-(((S)-1-methylpyrrolidin-2-yl)methoxy)quinazolin-4-yl)-2,5-dimethylpiperazin-1-yl)prop-2-en-1-one]",+++ (+++ indicates binding activity greater than 80%)
